Like-named read-outs stand apart in the source and are kept apart here.
Experiments:
[1] = system: angiogenesis (neovascularization); conditions: mice cornea model; dose levels of 210 mg/kg; cited from earlier work
[2] = system: panel of over twenty (20) human cancer cell lines; experiment: In vitro studies on a panel of human cancer cell lines; format: cell-based
Description: In contrast, Karenitecin is a highly lipophilic camptothecin derivative characterized by substantial lactone stability and long plasma half-life. […] The free drug concentration in blood plasma is generally considered to be the pharmacologically active form in clinical pharmacology.

[3] = system: Wild type human ovarian cancer cells (A2780/WT); experiment: SRB cytotoxicity assay, inhibition of cell growth, A2780/WT; format: cell-based; conditions: 2 hour treatment, SRB assay at 5 days
Method: (§1) Wild type human ovarian cancer cells (A2780/WT) and doxorubicin resistant human ovarian cancer cells (A2780/DX5) were cultured in RPMI 1640 medium supplemented with 10% fetal bovine serum and 2 mM glutamine, and grown in a 37° C. incubator with 5% CO2. BNP1350 synthesized from camptothecin natural product (purchased from APAC) and BNP1350 synthesized via the Total Synthesis Scheme at BioNumerik Pharmaceuticals, Inc. were dissolved in DMSO for use in cytotoxicity experiments where inhibition of cell growth was measured using the SRB assay. Briefly, cells were seeded (450 cells/well in 100 μL volume) in a 96-well microtiter plates and allowed to attach for 24 hours prior to treatment with either natural product BNP1350 or total synthesis BNP1350 for 2 hours. Following this 2 hour treatment, BNP1350 was removed, the cells were washed with drug-free media (200 μL), and then drug-free media (200 μL) was added to the cells which were allowed to continue growing at 37° C. with 5% CO2 before the SRB assay was performed (total experimental time from the time of initial seeding was 5 days, during which 5 cell doublings occurred).

[4] = system: doxorubicin resistant human ovarian cancer cells (A2780/DX5); experiment: SRB cytotoxicity assay, inhibition of cell growth, A2780/DX5; format: cell-based; conditions: for IC50: A2780/DX5, 2 hour treatment, SRB assay at 5 days; for Resistance Factor Ratio A2780/DX5 IC50/A2780WT IC50: ratio of average IC50 values
Method: as §1

[5] = sodium hydroxide formulation, hydrolysed E-ring; cited from earlier work

CCc1c2c(nc3ccc(OC(=O)N4CCC(N5CCCCC5)CC4)cc13)-c1cc3c(c(=O)n1C2)COC(=O)[C@]3(O)CC [Irinotecan, 7-ethyl-10-[4-(1-piperidino)-1-piperidino]carbonyloxy camptothecin]
neovascularization [1]: significant reduction

CC[C@@]1(O)C(=O)OCc2c1cc1n(c2=O)Cc2c-1nc1ccccc1c2CC[Si](C)(C)C [Total Synthesis BNP1350, (4S)-4-ethyl-4-hydroxy-11-[2-(trimethylsilyl)ethyl]-1H-pyrano[3′:4′:6,7]indolizino[1,2-b]quinoline-3,14(4H,12H)-dione]
antitumor potency compared with Topotecan or SN-38 [2]: significantly more potent | IC50 ([3]; Test 1, listed as Natural Product BNP1350, read-out: IC50 (nM) A2780/WT, Test 1): 6.7 nM | IC50 ([3]; Test 1, read-out: IC50 (nM) A2780/WT, Test 1): 6 nM | IC50 ([3]; Test 2, listed as Natural Product BNP1350, read-out: IC50 (nM) A2780/WT, Test 2): 5.4 nM | IC50 ([3]; Test 2, read-out: IC50 (nM) A2780/WT, Test 2): 6.8 nM | IC50 ([3]; average of Test 1 and Test 2, listed as Natural Product BNP1350, read-out: IC50 (nM) A2780/WT, Average): 6.1 nM | IC50 ([3]; average of Test 1 and Test 2, read-out: IC50 (nM) A2780/WT, Average): 6.4 nM | IC50 ([4]; Test 1, listed as Natural Product BNP1350, read-out: IC50 (nM) A2780/DX5, Test 1): 8.9 nM | IC50 ([4]; Test 1, read-out: IC50 (nM) A2780/DX5, Test 1): 11.9 nM | IC50 ([4]; Test 2, listed as Natural Product BNP1350, read-out: IC50 (nM) A2780/DX5, Test 2): 11.6 nM | IC50 ([4]; Test 2, read-out: IC50 (nM) A2780/DX5, Test 2): 11.7 nM | IC50 ([4]; average of Test 1 and Test 2, listed as Natural Product BNP1350, read-out: IC50 (nM) A2780/DX5, Average): 10.3 nM | IC50 ([4]; average of Test 1 and Test 2, read-out: IC50 (nM) A2780/DX5, Average): 11.8 nM | Resistance Factor Ratio A2780/DX5 IC50/A2780WT IC50 [4]: 1.8 | Resistance Factor Ratio A2780/DX5 IC50/A2780WT IC50 ([4]; listed as Natural Product BNP1350): 1.7

CC[C@@](O)(C(=O)O)c1cc2n(c(=O)c1CO)Cc1cc3ccccc3nc1-2 [carboxylate form of CPT]
anti-tumor potency relative to non-hydrolyzed lactone form of CPT [5]: one-tenth or less

Reference: patent US20140135499A1, “METHODS FOR THE TOTAL CHEMICAL […] OF ENANTIOMERICALLY-PURE 7-(2'-[…]) ETHYL CAMPTOTHECIN” (BioNumerik Pharmaceuticals, Inc., priority 2012, published 2014)
